Patent publication US20250122191A1, “COMPOUNDS AS BCL-2 INHIBITORS” (Fochon Biosciences, Ltd, priority 2021, published 2025)

These molecules were tested on Toledo cells (assay: Cell proliferation assay (MTS), Toledo cells). Settings: Homo sapiens, 72 h.
Assay type: cell-based
Summary of the method: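 Toledo cells (RPMI-1640, 10% FBS) seeded at 30000 cells/well, rested 4 h, then exposed 72 h at 37 °C, 5% CO2 to compound at nine final concentrations, 1.5–10000 nM. Viability by MTS (2 h), absorbance at 490 nm. IC50 from the concentration-response.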

Molecule `CCOc1nc2[nH]cc(F)c2cc1Oc1cc(N2CCC3(CC2)CC(N2CCN(CCOC)C[C@H]2c2ccccc2C(C)C)C3)ccc1C(=O)NS(=O)(=O)c1cnc(NC[C@H]2CC[C@](C)(O)CC2)c([N+](=O)[O-])c1` [Example 130, 2-((6-ethoxy-3-fluoro-1H-pyrrolo[2,3-b]pyridin-5-yl)oxy)-N-((6-((((1r,4r)-4-hydroxy-4-methylcyclohexyl)methyl)amino)-5-nitropyridin-3-yl)sulfonyl)-4-(2-((R)-2-(2-isopropylphenyl)-4-(2-methoxyethyl)piperazin-1-yl)-7-azaspiro[3.5]nonan-7-yl)benzamide] has an IC50 of 1 nM.

The molecules below were run on RS4;11-BCL-2 D103E cells (assay: Cell proliferation assay (MTS), RS4;11-BCL-2 D103E engineered cells). Settings: Homo sapiens, 72 h, read-out: RS4, 11 BCL2-D103E IC50.
Assay type: cell-based
Text: MTS testing kit was purchased from Promega (Madison, WI, USA). The RPMI-1640, Fetal bovine serum and Penicillin-Streptomycin were purchased from BI (Biological Industries, Beit Haemek, Israel). Puromycin was purchased from Beyotime (shanghai, China). Dimethyl sulfoxide (DMSO) was purchased from Sigma (St. Louis., MO, USA). RS4;11-BCL-2 G101V (Cobioer Lot. #: CBD2021063013P4), RS4;11-BCL-2 D103E (Cobioer Lot. #: CBD2021063013P4), RS4;11-BCL-2 D103Y (Cobioer Lot. #: CBD2022012101P4) and RS4;11-BCL-2 F104L (Cobioer Lot. #: CBD2021063014P4) cells were cultured in RPMI1640 supplemented with 1 ug/mL puromycin, 100 U/mL Penicillin-Streptomycin and 10% FBS.
To investigate whether a compound is able to inhibit the activity of BCL-2 mutation in cells, a mechanism-based assay using engineered cell lines stably overexpressing BCL-2 mutation (RS4;11-BCL-2 G101V, RS4;11-BCL-2 D103E, RS4;11-BCL-2 D103Y, and RS4;11-BCL-2 F104L) was developed. In this assay, the inhibition of BCL-2 mutation was reflected by the inhibition of cell proliferation of engineered RS4;11 cells. Cells were plated into 96-well plates at optimized cell density (RS4;11-BCL-2 G101V: 5000 cells/well; RS4;11-BCL-2 D103E: 7500 cells/well; RS4;11-BCL-2 D103Y: 7500 cells/well; RS4;11-BCL-2 F104L: 5000 cells/well). Plates were incubated at 37° C., with 5% CO2 for 4 h (RS4;11-BCL-2 G101V, RS4;11-BCL-2 F104L) and 24 h (RS4;11-BCL-2 D103E, RS4;11-BCL-2 D103Y), respectively. Compounds were serially diluted and added to the plates with the final concentrations of 10000, 3333.3, 1111.1, 370.4, 123.5, 41.2, 13.7, 4.6 and 1.5 nM. Plates were incubated at 37° C., with 5% CO2 for 120 h (RS4; 11-BCL-2 G101V, RS4; 11-BCL-2 F104L) and 72 h (RS4;11-BCL-2 D103E, RS4;11-BCL-2 D103Y), respectively. 20 μl MTS was added into each well and the plates were incubated at 37° C., with 5% CO2 exactly for 2 h. The absorbance was measured by a microplate reader at 490 nm. IC50 values were calculated using GraphPad Prism 8.0 software.

`COc1nc2[nH]cc(F)c2cc1Oc1cc(N2CCC3(CC2)CC(N2CCN(Cc4ccnc5c4OCO5)C[C@H]2c2ccccc2C(C)C)C3)ccc1C(=O)NS(=O)(=O)c1cnc(NC[C@H]2CC[C@](C)(O)CC2)c([N+](=O)[O-])c1` [Example 189, 4-(2-((R)-4-([1,3]dioxolo[4,5-b]pyridin-7-ylmethyl)-2-(2-isopropylphenyl)piperazin-1-yl)-7-azaspiro[3.5]nonan-7-yl)-2-((3-fluoro-6-methoxy-1H-pyrrolo[2,3-b]pyridin-5-yl)oxy)-N-((6-((((1r,4r)-4-hydroxy-4-methylcyclohexyl)methyl)amino)-5-nitropyridin-3-yl)sulfonyl)benzamide] and `COc1nc2[nH]cc(F)c2cc1Oc1cc(N2CCC3(CC2)CC(N2CCN(Cc4ccnc5c4OCCO5)C[C@H]2c2ccccc2C(C)C)C3)ccc1C(=O)NS(=O)(=O)c1cnc(NC[C@H]2CC[C@](C)(O)CC2)c([N+](=O)[O-])c1` [Example 191, 4-(2-((R)-4-((2,3-dihydro-[1,4]dioxino[2,3-b]pyridin-8-yl)methyl)-2-(2-isopropylphenyl)piperazin-1-yl)-7-azaspiro[3.5]nonan-7-yl)-2-((3-fluoro-6-methoxy-1H-pyrrolo[2,3-b]pyridin-5-yl)oxy)-N-((6-((((1r,4r)-4-hydroxy-4-methylcyclohexyl)methyl)amino)-5-nitropyridin-3-yl)sulfonyl)benzamide] are the same in IC50: 1 nM for the first, 1 nM for the second.

`COC1CCC(N2CCN(C3CC4(CCN(c5ccc(C(=O)NS(=O)(=O)c6cnc(NC[C@H]7CC[C@](C)(O)CC7)c([N+](=O)[O-])c6)c(Oc6cnc7[nH]cc(F)c7c6)c5)CC4)C3)[C@H](c3ccccc3C(C)C)C2)CC1` (stereo partly drawn) [Example 326, 2-((3-fluoro-1H-pyrrolo[2,3-b]pyridin-5-yl)oxy)-N-((6-((((1r,4r)-4-hydroxy-4-methylcyclohexyl)methyl)amino)-5-nitropyridin-3-yl)sulfonyl)-4-(2-((R)-2-(2-isopropylphenyl)-4-(4-methoxycyclohexyl)piperazin-1-yl)-7-azaspiro[3.5]nonan-7-yl)benzamide] and `COc1nc2[nH]cc(F)c2cc1Oc1cc(N2CCC3(CC2)CC(N2CCN(C4CCC(O)CC4)C[C@H]2c2ccccc2C(C)C)C3)ccc1C(=O)NS(=O)(=O)c1cnc(NC[C@H]2CC[C@](C)(O)CC2)c([N+](=O)[O-])c1` (single isomer, unassigned) [Example 331] are the same in IC50: 1 nM for the first, 1 nM for the second.

Going from `COc1cc(CN2CCN(C3CC4(CCN(c5ccc(C(=O)NS(=O)(=O)c6cnc(OC[C@H]7CC[C@](C)(O)CC7)c([N+](=O)[O-])c6)c(Oc6cc7c(F)c[nH]c7nc6OC)c5)CC4)C3)[C@H](c3ccccc3C(C)C)C2)ccn1` [Example 261, 2-((3-fluoro-6-methoxy-1H-pyrrolo[2,3-b]pyridin-5-yl)oxy)-N-((6-(((1r,4r)-4-hydroxy-4-methylcyclohexyl)methoxy)-5-nitropyridin-3-yl)sulfonyl)-4-(2-((R)-2-(2-isopropylphenyl)-4-((2-methoxypyridin-4-yl)methyl)piperazin-1-yl)-7-azaspiro [3.5]nonan-7-yl)benzamide] to `[2H]C([2H])([2H])Oc1cc(CN2CCN(C3CC4(CCN(c5ccc(C(=O)NS(=O)(=O)c6cnc(NC[C@H]7CC[C@](C)(O)CC7)c([N+](=O)[O-])c6)c(Oc6cc7c(F)c[nH]c7nc6OC)c5)CC4)C3)[C@H](c3ccccc3C(C)C)C2)ccn1` [Example 164, 2-((3-fluoro-6-methoxy-1H-pyrrolo[2,3-b]pyridin-5-yl)oxy)-N-((6-((((1r,4r)-4-hydroxy-4-methylcyclohexyl)methyl)amino)-5-nitropyridin-3-yl)sulfonyl)-4-(2-((R)-2-(2-isopropylphenyl)-4-((2-(methoxy-d3)pyridin-4-yl)methyl)piperazin-1-yl)-7-azaspiro[3.5]nonan-7-yl)benzamide], the IC50 falls from 2 nM to 1 nM (2-fold). The second is the more potent here.

`COc1nccc(CN2CCN(C3CC4(CCN(c5ccc(C(=O)NS(=O)(=O)c6cnc(NC[C@H]7CC[C@](C)(O)CC7)c([N+](=O)[O-])c6)c(Oc6cc7c(F)c[nH]c7nc6OC)c5)CC4)C3)[C@H](c3ccccc3C(C)C)C2)n1` [Example 165, 2-((3-fluoro-6-methoxy-1H-pyrrolo[2,3-b]pyridin-5-yl)oxy)-N-((6-((((1r,4r)-4-hydroxy-4-methylcyclohexyl)methyl)amino)-5-nitropyridin-3-yl)sulfonyl)-4-(2-((R)-2-(2-isopropylphenyl)-4-((2-methoxypyrimidin-4-yl)methyl)piperazin-1-yl)-7-azaspiro[3.5]nonan-7-yl)benzamide] and `COc1nc2[nH]cc(F)c2cc1Oc1cc(N2CCC3(CC2)CC(N2CCN(Cc4ccnc(O)c4)C[C@H]2c2ccccc2C(C)C)C3)ccc1C(=O)NS(=O)(=O)c1cnc(NC[C@H]2CC[C@](C)(O)CC2)c([N+](=O)[O-])c1` [Example 199, 2-((3-fluoro-6-methoxy-1H-pyrrolo[2,3-b]pyridin-5-yl)oxy)-N-((6-((((1r,4r)-4-hydroxy-4-methylcyclohexyl)methyl)amino)-5-nitropyridin-3-yl)sulfonyl)-4-(2-((R)-4-((2-hydroxypyridin-4-yl)methyl)-2-(2-isopropylphenyl)piperazin-1-yl)-7-azaspiro[3.5]nonan-7-yl)benzamide] are the same in IC50: 1 nM for the first, 1 nM for the second.

`COc1nc2[nH]cc(F)c2cc1Oc1cc(N2CCC3(CC2)CC(N2CCN(Cc4ccnc5c4OC(C)CN5)C[C@H]2c2ccccc2C(C)C)C3)ccc1C(=O)NS(=O)(=O)c1cnc(NC[C@H]2CC[C@](C)(O)CC2)c([N+](=O)[O-])c1` (stereo partly drawn) [Example 196, 2-((3-fluoro-6-methoxy-1H-pyrrolo[2,3-b]pyridin-5-yl)oxy)-N-((6-((((1r,4r)-4-hydroxy-4-methylcyclohexyl)methyl)amino)-5-nitropyridin-3-yl)sulfonyl)-4-(2-((2R)-2-(2-isopropylphenyl)-4-((2-methyl-3,4-dihydro-2H-pyrido[3,2-b][1,4]oxazin-8-yl)methyl)piperazin-1-yl)-7-azaspiro[3.5]nonan-7-yl)benzamide] and `COc1nc2[nH]cc(F)c2cc1Oc1cc(N2CCC3(CC2)CC(N2CCN(Cc4ccnc(C(C)(F)F)c4)C[C@H]2c2ccccc2C(C)C)C3)ccc1C(=O)NS(=O)(=O)c1cnc(NC[C@H]2CC[C@](C)(O)CC2)c([N+](=O)[O-])c1` [Example 149, 4-(2-((R)-4-((2-(1,1-difluoroethyl)pyridin-4-yl)methyl)-2-(2-isopropylphenyl)piperazin-1-yl)-7-azaspiro[3.5]nonan-7-yl)-2-((3-fluoro-6-methoxy-1H-pyrrolo[2,3-b]pyridin-5-yl)oxy)-N-((6-((((1r,4r)-4-hydroy-4-methylcyclohexyl)methyl)amino)-5-nitropyridin-3-yl)sulfonyl)benzamide] are the same in IC50: 1 nM for the first, 1 nM for the second.

The molecules below were run on RS4;11-BCL-2 G101V cells (assay: Cell proliferation assay (MTS), RS4;11-BCL-2 G101V engineered cells). Settings: Homo sapiens, 120 h, read-out: RS4, 11 BCL2-G101V IC50.
Assay type: cell-based
Summary of the method: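 Proliferation IC50 in RS4;11 lines engineered with BCL-2 mutations, measured by MTS at 490 nm after 72 h (D103E, D103Y) or 120 h (G101V, F104L) compound treatment at 37 °C.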

`CCOc1nc2[nH]cc(F)c2cc1Oc1cc(N2CCC3(CC2)CC(N2CCN(CCOC)C[C@H]2c2ccccc2C(C)C)C3)ccc1C(=O)NS(=O)(=O)c1cnc(NC[C@H]2CC[C@](C)(O)CC2)c([N+](=O)[O-])c1` [Example 130, 2-((6-ethoxy-3-fluoro-1H-pyrrolo[2,3-b]pyridin-5-yl)oxy)-N-((6-((((1r,4r)-4-hydroxy-4-methylcyclohexyl)methyl)amino)-5-nitropyridin-3-yl)sulfonyl)-4-(2-((R)-2-(2-isopropylphenyl)-4-(2-methoxyethyl)piperazin-1-yl)-7-azaspiro[3.5]nonan-7-yl)benzamide] was tested, and the IC50 was 1 nM.
